Assay results: patent US20210179680A1, “POLYPEPTIDE, DERIVATIVES THEREOF, AND APPLICATION THEREOF IN PREPARATION OF DRUGS HAVING RESISTANCE TO PULMONARY FIBROSIS” (priority 2016, published 2021)
Bridge positions count the residues as written; N and C are the ends. Square brackets hold non-standard residues; d marks the D form. Peptide text beside a SMILES is read from it. S5 = C=CCCC[C@](C)(N)C(=O)O

Tests used:
[1] = system: mice with bleomycin-induced pulmonary fibrosis; experiment: Survival rate of mice with bleomycin-induced pulmonary fibrosis; format: in vivo, C57BL/6 mice; details: Table 3 groups: 2 mg/kg i.p., 10th to 28th day after modeling, twice a week
Description: (§1) Male C57BL/6 mice were fasted overnight, then anesthetized with 45 mg/kg sodium pentobarbital by injection intraperitoneally (i.p.), and intratracheally injected with bleomycin at a dose of 3 U/kg. The specific operation steps are as follows: cut the neck skin of the mouse with as little trauma as possible, expose the trachea with the assistance of elbow ophthalmic forceps, puncture the trachea and inject about 50 μL of bleomycin into the trachea with a microsyringe, rotate the mouse quickly and stand it upright for 5 minutes in order to make bleomycin evenly enter the left and right lobe, thereby constructing an animal model. The whole operation was performed at a surgical table at about […]. Mice in the sham operation group were intratracheally injected with an equal amount of physiological saline for injection.
The animal model with pulmonary fibrosis was prepared according to the method described in Example 2. The peptide therapy was started from the 10th day after modeling (the treatment groups are shown in Table 3), and the time was calculated from the 10th day after modeling to count the mortality rate. The death situation of each group of experimental animals was counted and calculated daily. […] The survival rate is the percentage of the number of mice that survived accounting for the number of mice in the whole group. Results are shown in FIG. 6-1, FIG. 6-2 and Table 4. […] In FIG. 6-1 and FIG. 6-2, “##” represents that P value is less than 0.01 when the survival rate of administration group was compared with that of the sham operation group; “*” represents that P value is less than 0.05 when the survival rate of administration group was compared with that of the bleomycin group; “**” represents that P value is less than 0.01 when the survival rate of administration group was compared with that of bleomycin group; and “i.p.” refers to intraperitoneal injection.
The animal model of pulmonary fibrosis was prepared according to the method described in Example 2. The polypeptide treatment was started from the 10th day after modeling (the treatment groups are shown in Table 9), and the time was calculated from the 10th day after modeling to count the mortality rate. The mortality rate of each group of experimental animals was recorded and calculated daily. If none of the animals in a group died, the survival rate of the group is 100%. If all the animals in a group died, the survival rate is 0%. […] In FIG. 12, “##” represents that P value is less than 0.01 when the survival rate of the administration groups were compared with that of the sham operation group; “*” represents that P value is less than 0.05 and “**” represents that P value is less than 0.01 when the survival rate of the administration groups were compared with bleomycin group.

[2] = α-helix ratio of polypeptides by circular dichroism; format: physicochemical; details: PBS solution, 1 mg/mL
Description: The α-helix ratio of the polypeptide was measured by a circular dichromatograph (purchased from Jasco, Japan). The polypeptides MR2, S1, S2, S3, S4, S5, S6, S7, S8, S9, S10 and S11 prepared in Example 1 were dissolved in PBS solution, and the working concentration of the circular dichromatograph was adjusted to 1 mg/mL. […] Among them, the α-helix ratio refers to the percentage of the number of peptide segments of the polypeptide that maintains the alpha helix of the secondary structure in the peptide segments of the total polypeptide.

[3] = system: mice with bleomycin-induced pulmonary fibrosis; experiment: Lung weight index in mice with pulmonary fibrosis; format: in vivo, C57BL/6 mice; details: Table 3 groups, 2 mg/kg i.p.; after 28 days; lung weight (mg) divided by body weight (g)
Description: as §1
Pulmonary fibrosis model was prepared according to the method described in Example 2, and administered in groups according to Table 3. After 28 days, the lungs of the mice were finely stripped and weighed, and a lung weight index was obtained from dividing the lung weight (mg) by the body weight (g) of the mice. […] In FIG. 7, “##” represents that P value is less than 0.01 when the lung weight index of administration group was compared with that of the sham operation group; “*” represents that P value is less than 0.05 when the lung weight index of administration group was compared with that of the bleomycin group; “**” represents that P value is less than 0.01 when the lung weight index of administration group was compared with that of bleomycin group.
Pulmonary fibrosis models were made according to the method described in Example 2 and administered in groups according to Table 9. After 28 days, the lungs of the mice were finely stripped and weighed, and the lung weight (mg) was divided by the body weight (g) of the mice to obtain a lung weight index. […] In FIG. 13, “##” represents that P value is less than 0.01 when the lung weight index of the administration groups were compared with that of the sham operation group; “*” represents that P value is less than 0.05 and “**” represents that P value is less than 0.01 when the lung weight index of the administration groups were compared with bleomycin group.

TRB3 protein = target: T1, TRB3 protein (Homo sapiens, UniProt Q96RU7); experiment: Surface plasmon resonance (Biacore T200) binding of polypeptides to TRB3 protein; details: SPR, FIG. 4-1, 4-2 and Table 1
T1 construct: purchased RD
T1 sequence (Q96RU7 1-358): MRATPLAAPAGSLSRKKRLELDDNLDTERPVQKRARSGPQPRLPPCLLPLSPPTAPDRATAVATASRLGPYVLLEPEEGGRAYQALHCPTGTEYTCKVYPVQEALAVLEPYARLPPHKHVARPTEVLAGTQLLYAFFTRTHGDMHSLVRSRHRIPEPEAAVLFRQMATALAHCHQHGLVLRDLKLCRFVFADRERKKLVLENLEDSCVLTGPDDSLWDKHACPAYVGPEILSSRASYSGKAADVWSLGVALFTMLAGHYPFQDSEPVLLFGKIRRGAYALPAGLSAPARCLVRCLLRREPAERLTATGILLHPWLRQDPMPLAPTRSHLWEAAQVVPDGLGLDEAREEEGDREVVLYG
Description: The surface plasmon resonance experiment was carried out in a surface plasmon resonator Biacore T200, and the procedure was carried out in accordance with the instructions of the plasma resonator Biacore T200. Specific steps are as follows:
1. Purified TRB3 protein (purchased from RD) was coupled to a CMS chip (purchased from GE) by amidogen, and the unbound protein was eluted at a flow rate of 10 μL/min. The surface of the chip was equilibrated for 2 hours. Among them, the specific steps of amidogen coupling, elution and equilibration refer to the relevant instruction of GE's CMS chip.
2. 250 μL of the S1-S11 and MR2 polypeptide fragments prepared in Example 1 with different concentrations (800, 400, 200, 50, 12.5, 6.25, and 3.125 nM) were automatically injected, and the entire surface plasmon resonance experiment was carried out at 25° C. The buffer used was HBS-EP buffer [0.01 M HEPES, 0.15 M NaCl, 3 mM EDTA and 0.005% (w/w) surfactant TWEEN20]. Biacore T200's built-in analysis software was used to simulate the binding curves of different concentrations of peptides to TRB3.

Compound	Survival rate (%) 7 days [1]	Survival rate (%) 14 days [1]	Survival rate (%) 21 days [1]	Survival rate (%) 28 days [1]	α-helicity (%) [2]	α-helix ratio compared with polypeptide MR2 (in words) [2]	Lung weight index [3]	interaction with the TRB3 protein (in words) (TRB3 protein)
CSCC[C@H](NC(=O)[C@H](CC(C)C)NC(=O)[C@@H](N)Cc1c[nH]cn1)C(=O)N[C@@H](C)C(=O)N[C@@H](CS)C(=O)N[C@@H](Cc1ccccc1)C(=O)N[C@H](C(=O)N[C@@H](CS)C(=O)N[C@@H](C)C(=O)N[C@@]1(C)CCCC=CCCC[C@@](C)(C(=O)N[C@@H](CCCNC(=N)N)C(=O)O)NC(=O)[C@H](CCCCN)NC(=O)[C@H](CC(C)C)NC(=O)[C@H](CCCCN)NC1=O)[C@@H](C)O [S10, His-Leu-Met-Ala-Cys-Phe-Thr-Cys-Ala-S5-Lys-Leu-Lys-S5-Arg] (H-HLMACFTCA[S5]KLK[S5]R-OH; staple 10-14; N-terminus and C-terminus assumed)	100%	93.33%	80%	80%	31.5%	significantly higher than that of polypeptide MR2	8.8875	interacted with the TRB3 protein
CSCC[C@H](NC(=O)[C@H](CC(C)C)NC(=O)[C@@H](N)Cc1c[nH]cn1)C(=O)N[C@@H](C)C(=O)N[C@@H](CS)C(=O)N[C@@H](Cc1ccccc1)C(=O)N[C@H](C(=O)N[C@@H](CS)C(=O)N[C@@]1(C)CCCC=CCCC[C@@](C)(C(=O)N[C@@H](CCCCN)C(=O)N[C@@H](CCCNC(=N)N)C(=O)O)NC(=O)[C@H](CC(C)C)NC(=O)[C@H](CCCCN)NC(=O)[C@H](CCCCN)NC1=O)[C@@H](C)O [S9, His-Leu-Met-Ala-Cys-Phe-Thr-Cys-S5-Lys-Lys-Leu-S5-Lys-Arg] (H-HLMACFTC[S5]KKL[S5]KR-OH; staple 9-13; N-terminus and C-terminus assumed)	100%	93.33%	93.33%	93.33%	44.0%	significantly higher than that of polypeptide MR2	7.4125	interacted with the TRB3 protein
CSCC[C@H](NC(=O)[C@H](CC(C)C)NC(=O)[C@@H](N)Cc1c[nH]cn1)C(=O)N[C@@H](C)C(=O)N[C@@H](CS)C(=O)N[C@@H](Cc1ccccc1)C(=O)N[C@H](C(=O)N[C@@H](CS)C(=O)N[C@@H](C)C(=O)N[C@@H](CCCCN)C(=O)N[C@@]1(C)CCCC=CCCC[C@@](C)(C(=O)O)NC(=O)[C@H](CCCCN)NC(=O)[C@H](CCCCN)NC(=O)[C@H](CC(C)C)NC1=O)[C@@H](C)O [S11, His-Leu-Met-Ala-Cys-Phe-Thr-Cys-Ala-Lys-S5-Leu-Lys-Lys-S5] (H-HLMACFTCAK[S5]LKK[S5]-OH; staple 11-15; N-terminus and C-terminus assumed)	100%	93.33%	86.67%	86.67%	37.8%	significantly higher than that of polypeptide MR2	9.2875	interacted with the TRB3 protein
CSCC[C@H](NC(=O)[C@H](CC(C)C)NC(=O)[C@@H](N)Cc1c[nH]cn1)C(=O)N[C@@H](C)C(=O)N[C@@]1(C)CCCC=CCCC[C@@](C)(C(=O)N[C@@H](CCCCN)C(=O)N[C@@H](CCCCN)C(=O)N[C@@H](CC(C)C)C(=O)N[C@@H](CCCCN)C(=O)N[C@@H](CCCCN)C(=O)N[C@@H](CCCNC(=N)N)C(=O)O)NC(=O)[C@H](CS)NC(=O)[C@H]([C@@H](C)O)NC(=O)[C@H](Cc2ccccc2)NC1=O [S5, His-Leu-Met-Ala-S5-Phe-Thr-Cys-S5-Lys-Lys-Leu-Lys-Lys-Arg] (H-HLMA[S5]FTC[S5]KKLKKR-OH; staple 5-9; N-terminus and C-terminus assumed)	100%	100%	93.33%	93.33%	69.1%	significantly higher than that of polypeptide MR2	8.575	interacted with the TRB3 protein
